The values below come from patent publication US11175294B2, “Protein composition and methods for analysing microbiota” (UNIVERSITY OF OTTAWA, priority 2016, dated 2021).

The subject of test [1] is Akkermansia genus species in cultured microbiome. Nature of the test: RapidAIM assay of an individual microbiome treated with berberine, species-level taxonomic quantification on MetaLab. It is filed as cell-based. The following applies: high concentration vs sample cultured without drug treatment. The source says:
Developing RapidAIM in a multi-well plate format: microbiota can be inoculated and grown in culture media. Assays, performed in any multiwall format (e.g. 6 well to 96 well plate formats, or any other type of format, for example, using tubes) and can be titrated, examining at each stage whether the yield per well provides sufficient material for downstream analyses. The analysis can be performed using a workflow for metaproteome as described in Zhang et al. “MetaPro-IQ: a universal metaproteomic approach to studying human and mouse gut microbiota”, Microbiome, 2016 Jun. 24:4(1):31, doi: 10.1186/s40168-016-0176-z. The workflow uses the close-to-complete human or mouse gut microbial gene catalog as a database and uses an iterative database search strategy. An example of a high-through put experimental workflow for the RapidAIM has been established based on a 96-well format (FIG. 9). This workflow includes, (A) 96-well based microbiome culturing, and (B) 96-well based metaproteomics analysis.
As an example, RapidAIM was used to assay an individual a microbiome treated with a high, medium or low dose of berberine compared to the sample cultured without drug treatment (FIG. 10). The taxonomic composition at the species level were quantified in each of the cultured microbiome sample on the MetaLab bioinformatics platform.

Another test relates to human microbiota. Kind of test: SILAMi-based metaproteomics of microbiota cultured with or without monosaccharides. It is filed as cell-based. Conditions: 2.5 g/L monosaccharide vs non-treated control; for overall effect on the metaproteome: 3,158 quantified proteins. As to the method:
Finally, it was tested whether the […] labelled-standard could be used to distinguish the effects of different monosaccharides on the microbiota. It will be understood that monosaccharides are used herein as an example of a compound that may have an effect on the microbiota. However, other compounds that have be introduced to a microbiota sample or to a subject of which a microbiota sample has been obtained, that may impact the microbiota, may be similarly analyzed as described herein. Overall, 18 samples cultured with or without 2.5 g/L of each monosaccharide (N-acetyl glucosamine or GlcNAc, mannose, galactose, fucose, or glucose) were analyzed, by […]-based metaproteomics which led to 3,158 quantified proteins. Two hundred and forty-six protein groups were identified as being differentially abundant as compared to the non-treated control group (Table 4): […]

Another test concerns Akkermansia spp. Conditions: reported in other literature; cited from earlier work.

Regarding `COc1ccc2cc3[n+](cc2c1OC)CCc1cc2c(cc1-3)OCO2` [Berberine], the “abundances of the species originating from the Akkermansia genus” value in test [1] is “significantly increased”.

With `CC(=O)N[C@H]1C(O)O[C@H](CO)[C@@H](O)[C@@H]1O` (some centres unmarked) [GlcNAc, N-acetyl glucosamine], in the test on human microbiota, the “change of GlcNAc degrading proteins” value was “significant increase”, the “change of asparagine synthase” value is reported as “significantly increased” and the “overall effect on the metaproteome” value is “most dramatic alterations of the metaproteome”.

Regarding `CN(C)C(=N)N=C(N)N` [Metformin], the “Akkermansia spp in the gut microbiome” value with Akkermansia spp is “increased”.

In the case of `C[C@H](O)[C@@H](O)[C@@H](O)[C@H](O)C=O` [fucose], in the test with human microbiota, the “change of cluster 206, mainly fucose utilization-related proteins” value was “increased only in the fucose-treated microbiota”; the “change of quantified fucose utilizing proteins in the fucose utilization pathway” value was “all of the six quantified fucose utilizing proteins in the fucose utilization pathway were increased”; the “overall effect on the metaproteome” value is listed as “smallest effect on the metaproteome”.
